Data published in patent US7112339B1, “Compositions for controlled release of a biologically active agent, and the preparation thereof” (DelSiTech Oy, priority 1999, dated 2006).

System: Factor Xa
Test: Factor Xa assay (HEPRN) of heparin biological activity
Assay type: biochemical
Experimental: The silica sol loaded with heparin was prepared by a two step sol-gel process using acid as a catalyst (Ellerby et al. 1992). The following reagents were used, tetraethoxysilane (TEOS) (Aldrich), deionized water, nitric acid (HNO3) (Merck), acetic acid (CH3COOH) (Merck), ammonium hydroxide (NH4OH) (Merck)) and heparin sodium salt (Orion Corporation, Finland). The biological activity of the used heparin was 84 IU/mg measured by Factor Xa assay (HEPRN). The first step of the reaction series was a hydrolysis reaction between water and alkoxide. The mol ratio of the silica sol was TEOS:H2O:HNO3=1:15:0.0015 and TEOS:H2O:CH3COOH=1:15:0.026, respectively. Modification of the nitric acid catalyzed sol was carried out by co-hydrolysis of TEOS with the following organomodified (i.e. alkylsubstituted) alkoxysilanes: dimethyldiethoxysilane Me2Si(OEt)2 (DMDES) (Lancaster), methyltriethoxysilane MeSi(OEt)3(METES) (Aldrich) or ethyltriethoxysilane EtSi(OEt)3 (ETES) (Lancaster). For the partial substitution of TEOS, 10 or 25 mol-% organomodified alkoxysilane was used. After the first step, i.e. hydrolysis reaction, pH was raised to 4.54.8 with base (0.1 or 1 M NH4OH) before heparin addition. […] The concentration of heparin in silica sol ranged from 1 wt % to 4 wt % calculated on the sol, corresponding to 6.8–29.2 wt % in the air dried silica xerogel. […]

With heparin the “biological activity of the used heparin” value was 84 IU/mg.
